Test results from US7273848B2, “Apolipoprotein A-I agonists and their use to treat dyslipidemic disorders” (priority 1997, dated 2007).
Non-standard residues stand in square brackets, D forms with d. Residues, ends and D or L forms follow the SMILES beside them. No end group written: not given here. Aib = CC(C)(N)C(=O)O

Tests used:
[1] = target: T1, LCAT (purified from human plasma) (Homo sapiens, UniProt P04180); assay: LCAT activation assay; assay type: biochemical; conditions: LCAT activation as compared with native human ApoA-I (= 100%), equivalent masses
T1 construct: from tissue; host or cells: human plasma
T1 sequence (P04180 25-440): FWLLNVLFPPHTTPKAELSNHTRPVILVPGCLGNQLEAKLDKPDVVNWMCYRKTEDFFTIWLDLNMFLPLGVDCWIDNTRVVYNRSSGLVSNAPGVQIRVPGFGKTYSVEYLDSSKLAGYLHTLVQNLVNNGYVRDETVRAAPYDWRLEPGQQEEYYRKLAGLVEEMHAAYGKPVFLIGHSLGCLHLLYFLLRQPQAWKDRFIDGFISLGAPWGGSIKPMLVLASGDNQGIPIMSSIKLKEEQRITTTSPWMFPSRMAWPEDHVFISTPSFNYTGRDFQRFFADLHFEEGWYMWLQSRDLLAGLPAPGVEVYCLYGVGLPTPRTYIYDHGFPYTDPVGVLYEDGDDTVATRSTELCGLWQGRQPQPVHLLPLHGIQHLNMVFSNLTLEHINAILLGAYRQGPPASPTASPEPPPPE
How it was run: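 Activity was expressed as percentage conversion of radiolabelled cholesterol to cholesteryl ester, normalised to native ApoA-I as 100%. LCAT purified from human plasma was added to peptide-preincubated EPC or POPC/cholesterol (20:1) small unilamellar vesicles at pH 7.4. Specific activity is the peptide concentration reaching the conversion plateau at a fixed timepoint.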

[2] = Circular dichroism helicity determination; assay type: physicochemical; conditions: percent helicity; for He (%) TFE: 5 μM peptide, 90% vol TFE; for He (%) TFE / He (%) SUVs: 37° C.; for He (%) free: unbound peptide 5 μM in 5 mM phosphate buffer, pH 7.4, 37° C.; for He (%) SUVs: peptide-SUV complexes (20:1 EPC:Chol., Ri=30 and Ri=50); for He (%) mics: peptide-micelle complexes, Ri=100, 37° C.
Method: Far UV circular dichroism spectra were recorded between 190 and 260 nm (in 0.5 nm or 0.2 nm increments) with a AVIV62DS spectrometer (AVIV Associates, Lakewood, N.J., USA) equipped with a thermoelectric cell holder and sample changer. The instrument was calibrated with (+)-10-[…]. Between one and three scans were collected for each sample, using 10 cm, 5 cm, 1 cm and 0.1 cm path length quartz Suprasil cells, respectively, for peptide concentrations of 10^−7 M to 10^−4 M. The bandwidth was fixed at 1.5 nm and the scan speed to 1s per wavelength step. The reported data are the mean of at least 2 or 3 independent measurements.
After background substraction, spectra were converted to molar ellipticity (θ) per residue in deg. […] dmol^−1. The peptide concentration was determined by amino acid analysis and also by absorption spectrometry on a Perkin Elmer Lambda 17 UV/Visible spectrophotometer when the peptide contained a chromophore (tryptophane, dansyl, naphtylalanine).
CD spectra were obtained with free, unbound peptide (5 μM in 5 mM phosphate buffer, pH 7.4); with peptide-SUV complexes (20:1 EPC:Chol., Ri=30 and Ri=50); with peptide-micelle complexes (1-myristoyl-2-hydroxy-sn-glycero-3-phosphatidyl choline, Ri=100); and with free, unbound peptide in the presence of 2,2,2-trifluoroethanol (TFE) (5 μM peptide, 90% vol TFE).
The SUVs were obtained by dispersing the lipids (10 mM, 20:1 EPC:Chol., Avanti Polar Lipids, AL) in phosphate buffer (5 mM, pH 7.4) with bubbling N2 for 5 min., followed by sonication (1.5 hr.) in a bath sonicator. The homogeneity of the preparation was checked by FPLC.
The micelles were obtained by dispersing the lipid (6 mM 1-myristoyl-2-hydroxy-sn-glycero-3-phosphatidyl choline, Avanti Polar Lipids, AL) in phosphate buffer (5 mM, pH 7.4) with bubbling N2 for 5 min., followed by vortexing.
To obtain the peptide-SUV complexes, SUVs were added to the peptide (5 μM in 5 mM phosphate buffer, pH 7.4) at a phospholipid-peptide molar ratio (Ri) of 30 or 50.
To obtain the peptide-micelle complexes, micelles were added to the peptide (5 μM in 5 mM phosphate buffer, pH 7.4) at a Ri of 100.
All spectra were recorded at 37° C.
The degree of helicity of the peptides in the various conditions was determined from the mean residue ellipticity at 222 nm (Chen et al., 1974, Biochemistry 13:3350-3359) or by comparing the CD spectra obtained to reference spectra available on databases (16 helical reference spectra from Provencher & Glockner, 1981, Biochemistry 20:33-37; denatured protein reference spectra from Venyaminov et al., 1993, Anal. Biochem. 214:17-24) using the CONTIN curve-fitting algorithm version 2DP, CD-1 pack (August 1982) (Provencher, 1982, Comput. Phys. Commun. 27:213-227, 229-242). Acceptable fit was determined using the statistical analysis methodology provided by the CONTIN algorithm. The error of all methods was ±5% helicity.

ACTIVITY (%) LCAT [1] | He (%) TFE [2] | He (%) free [2] | He (%) SUVs [2] | He (%) mics [2] | Compound
27% | – | 68% | 81% | 83% | PVLELFENWLERLLDALQKKLK [compound 162]
83% | 93% | 20% | 61% | 90% | PVLDLFRELLNEGLEALKQKLK [compound 8]
93% | 94% | 80% | 97% | 95% | CC(C)C[C@H](NC(=O)[C@H](C)NC(=O)[C@H](CCC(=O)O)NC(=O)[C@H](CC(C)C)NC(=O)[C@H](CC(C)C)NC(=O)[C@H](CCC(=O)O)NC(=O)[C@H](CC(N)=O)NC(=O)[C@H](CC(C)C)NC(=O)[C@H](CC(C)C)NC(=O)[C@H](CCC(=O)O)NC(=O)[C@H](CCCNC(=N)N)NC(=O)[C@H](Cc1ccccc1)NC(=O)[C@H](CC(C)C)NC(=O)[C@H](CC(=O)O)NC(=O)[C@H](CC(C)C)NC(=O)[C@@H](NC(=O)[C@@H]1CCCN1)C(C)C)C(=O)N[C@@H](CCCCN)C(=O)N[C@@H](CCC(N)=O)C(=O)N[C@@H](CCCCN)C(=O)N[C@@H](CC(C)C)C(=O)N[C@@H](CCCCN)C(=O)O [compound 4]
98% | 95% | 70% | 80% | 95% | PVLDLFRELLNELLEWLKQKLK [compound 3]
24% | 61% | 37% | 51% | 66% | PVLELFENLLERLLDAWQKKLK [compound 164]
19% | 58% | 49% | 60% | 72% | Ac-EWLKAFYEKVLEKLKELF-NH2 [peptide 238, reference compound]
1% | 55% | 21% | 29% | 49% | PLLNELLEALKQKLK [compound 104]
26% | 55% | 27% | – | 53% | PVLELFENLLERLWDALQKKLK [compound 163]
15% | – | – | – | – | CC(C)C[C@H](NC(=O)[C@H](C)NC(=O)[C@H](CCC(=O)O)NC(=O)[C@H](CC(C)C)NC(=O)C(C)(C)NC(=O)[C@H](CCC(=O)O)NC(=O)[C@H](CC(N)=O)NC(=O)[C@H](CC(C)C)NC(=O)[C@H](CCCCN)NC(=O)[C@H](CCC(=O)O)NC(=O)[C@H](CCCNC(=N)N)NC(=O)[C@H](Cc1ccccc1)NC(=O)[C@H](CCC(=O)O)NC(=O)[C@H](CC(=O)O)NC(=O)[C@H](CC(C)C)NC(=O)[C@@H](N)C(C)C)C(=O)N[C@@H](CCCCN)C(=O)N[C@@H](CCC(N)=O)C(=O)N[C@@H](CCCCN)C(=O)N[C@@H](CC(C)C)C(=O)N[C@@H](CCCCN)C(=O)O [compound 65, ~VLDEFREKLNEXLEALKQKLK] (H-VLDEFREKLNE[Aib]LEALKQKLK-OH)
9% | – | – | – | – | PVLDLFERLLNELLEALQKKLK [compound 80]
4% | – | – | – | – | PVLDLFRELLNELLE [compound 97]
90% | – | – | – | – | CC(C)C[C@H](NC(=O)[C@H](C)NC(=O)[C@H](CCC(=O)O)NC(=O)[C@H](CC(C)C)NC(=O)[C@H](CC(C)C)NC(=O)[C@H](CCC(=O)O)NC(=O)[C@H](CC(N)=O)NC(=O)[C@H](CC(C)C)NC(=O)[C@H](CC(C)C)NC(=O)[C@H](CCC(=O)O)NC(=O)[C@H](CCCNC(=N)N)NC(=O)[C@H](Cc1ccccc1)NC(=O)[C@H](CC(C)C)NC(=O)[C@H](CC(=O)O)NC(=O)[C@H](CC(C)C)NC(=O)[C@@H](NC(=O)[C@H]1CCCN1)C(C)C)C(=O)N[C@@H](CCCCN)C(=O)N[C@@H](CCC(N)=O)C(=O)N[C@@H](CCCCN)C(=O)N[C@@H](CC(C)C)C(=O)N[C@@H](CCCCN)C(=O)N[C@@H](CCCCN)C(=O)O [compound 5]
1% | – | – | – | – | PVLDEFRELLNEELEALKQKLK [compound 103]
0% | – | – | – | – | Ac-PVLDLFRELGEELKQKLK-NH2 [compound 227]
72% | – | – | – | – | PVLDLFKELLQELLEALKQKLK [compound 11]
16% | – | – | – | – | PVLELFLNLLERLGDALQKKLK [compound 172]
16% | – | – | – | – | CC(C)C[C@H](NC(=O)[C@H](C)NC(=O)[C@H](CCC(=O)O)NC(=O)[C@H](CC(C)C)NC(=O)C(C)(C)NC(=O)[C@H](CCC(=O)O)NC(=O)[C@H](CC(N)=O)NC(=O)[C@H](CC(C)C)NC(=O)[C@H](CCCCN)NC(=O)[C@H](CCC(=O)O)NC(=O)[C@H](CCCNC(=N)N)NC(=O)[C@H](Cc1ccccc1)NC(=O)[C@H](Cc1ccccc1)NC(=O)[C@H](CC(=O)O)NC(=O)[C@H](CC(C)C)NC(=O)[C@@H](NC(=O)[C@@H]1CCCN1)C(C)C)C(=O)N[C@@H](CCCCN)C(=O)N[C@@H](CCC(N)=O)C(=O)N[C@@H](CCCCN)C(=O)N[C@@H](CC(C)C)C(=O)N[C@@H](CCCCN)C(=O)O [compound 63, PVLDFFREKLNEXLEALKQKLK] (H-PVLDFFREKLNE[Aib]LEALKQKLK-OH)
33% | – | – | – | – | CC(C)C[C@H](NC(=O)[C@H](C)NC(=O)[C@H](CCC(=O)O)NC(=O)[C@H](CC(C)C)NC(=O)[C@H](CC(C)C)NC(=O)[C@H](CCC(=O)O)NC(=O)[C@H](CC(N)=O)NC(=O)[C@H](CC(C)C)NC(=O)[C@H](CC(C)C)NC(=O)[C@H](CCC(=O)O)NC(=O)[C@H](CCCNC(=N)N)NC(=O)[C@H](Cc1ccccc1)NC(=O)[C@H](CC(C)C)NC(=O)[C@H](CC(=O)O)NC(=O)[C@H](CC(C)C)NC(=O)[C@@H](NC(=O)C(C)(C)N)C(C)C)C(=O)N[C@@H](CCCCN)C(=O)N[C@@H](CCC(N)=O)C(=O)N[C@@H](CCCCN)C(=O)N[C@@H](CC(C)C)C(=O)N[C@@H](CCCCN)C(=O)O [compound 32, XVLDLFRELLNELLEALKQKLK] (H-[Aib]VLDLFRELLNELLEALKQKLK-OH)
0% | – | – | – | – | PVLDEFREKLNEELEALWQKLK [compound 121]
15% | – | – | – | – | PVLDLFDNLLDRLLDLLNKKLK [compound 173]

Compound | ACTIVITY (%) LCAT [1] | He (%) TFE [2] | He (%) free [2] | He (%) SUVs [2] | He (%) mics [2]
PVLDLFRELLEELLKALKKKLK [compound 39] | 25% | 72% | 66% | 68% | 69%
